Measured values published in patent US9746463B2 (THE TRUSTEES OF COLUMBIA UNIVERSITY IN THE CITY OF NEW YORK, priority 2006, dated 2017).
Ends that are not written are not given here.

Assays:
[1] = Osteocalcin subcutaneous infusion in wt mice: body weight and gonadal fat pad mass; assay type: in vivo, mouse
Experimental: (FIG. 13A) Indicated doses of recombinant osteocalcin or PBS were infused subcutaneously for 28 days in wt mice. Body weight was recorded at indicated days. (FIG. 13B) Gonadal fat pad mass was measured after 28 days.
In another in vivo experiment, the effect of uncarboxylated osteocalcin on body weight and fat pad mass was monitored (FIG. 13). Wild type mice were infused subcutaneously for 28 days with PBS or uncarboxylated osteocalcin at 0.3, 1 or 3 ng/hour. […] (FIG. 13) Gonadal fat pad mass, measured after 28 days, decreased by about %18 with 3 ng/hour uncarboxylated osteocalcin treatment.

[2] = tested on: Adiponectin expression in WT adipocytes; assay: Adiponectin expression in adipocytes treated with osteocalcin (real time PCR); assay type: cell-based, mouse; conditions: wild type adipocytes treated for 4 hours, real time PCR, vs vehicle
Experimental: FIG. 7A-O. Esp−/− Mice Are a Model of Increased Osteocalcin Bioactivity. (FIGS. 7A-G) Comparison between 6-week-old WT, Esp−/, Ocn+/−, and Esp−/−; Ocn+/− mice. (FIG. 7A) Blood glucose levels. (FIG. 7B) Serum insulin levels. (FIG. 7C) Serum adiponectin levels. (FIG. 7D) GTT. (FIG. 7E) ITT. (FIG. 7F) GSIS test. (FIG. 7G) Quantification of the number of Ki67-immunoreactive cells in pancreatic islets. […] (FIG. 7K) Expression of Adiponectin in WT adipocytes cultured in presence of vehicle or of 1 ng/ml of commercially available carboxylated osteocalcin (Immunotopics) or bacterially produced uncarboxylated osteocalcin. (FIG. 7L) Expression of Insulin and Cyclin D1 in WT islets cultured in presence of 0.3 ng/ml of bacterially produced uncarboxylated osteocalcin or vehicle. (FIG. 7M) Metabolic parameters and total serum osteocalcin levels in control and obese patients. (FIG. 7N-O) Quantification of carboxylated osteocalcin (HA-bound osteocalcin) in control and obese patients. In (FIGS. 7A)-(C) and (FIGS. G)-(L): *p<0.05 versus WT (Student's t test); in (FIG. D)-(F), °p<0.05 versus WT and *p % 0.001 versus WT (ANOVA followed by post hoc analysis).
FIG. 15. […] Wt adipocytes were treated for 4 hours with recombinant full-length osteocalcin (1-46) or a truncated form (1-36) or vehicle. Adiponectin expression was then quantified by real time PCR.
Primary adipocytes were isolated from epididymal fat pads by collagenase digestion. Briefly, minced adipose tissue was digested by 1 mg/ml collagenase P in KRP Buffer (20 mM HEPES, 120 mM NaCl, 6 mM KCl, 1.2 mM MgSO4, 1 mM CaCl2, 0.6 mM Na2HPO4, 0.4 mM NaH2PO4, 2.5 mM D-glucose, 2% BSA, pH 7.4) for 1 h at 37° C. The isolated cells were washed twice with KRP Buffer before being cultured in αMEM/1% FBS at 37° C. in 5% CO2.
Gene expression analyses. All gene expression analyses were performed using real time PCR. DNAse I-treated total RNA was converted to cDNA with the SuperScript III kit (Invitrogen). Real-time PCR were performed using the Taq SYBR Green Supermix with ROX (Biorad) on an MX3000 instrument (Stratagene); beta-actin amplification was used as an internal reference for each sample. All primers were from SuperArray.
A fragment of uncarboxylated osteocalcin is biologically active. Experiments were performed to test whether truncated osteocalcin was as effective as full-length uncarboxylated osteocalcin in stimulating adiponectin secretion from mouse adipocytes in vitro. Wild type adipocytes were treated for 4 hours with recombinant full-length osteocalcin (1-46) or a truncated form (1-36) (having a deletion of the first ten amino acids from the C-terminal end) or vehicle. Adiponectin expression was then quantified by real time PCR. […]

uncarboxylated osteocalcin: Recombinant mouse osteocalcin bacterially produced as GST fusion, cleaved with thrombin; completely undercarboxylated at all three sites (YLGASVPSPDPLEPTREQCELNPACDELSDQYGLKTAYKRIYGITI; not fully specified; ends and bridges not checked; UniProt P86546 50-95, looked up)
decrease of gonadal fat pad mass ([1]; 3 ng/hour, measured after 28 days): ~18% | fat mass ([1]; indicated doses infused subcutaneously for 28 days (figure legend)): decreases fat mass | gonadal fat pad mass ([1]; the other doses (0.3, 1 ng/hour), 28 days): did not significantly decrease fat pad mass | body weight ([1]; wild type mice, 0.3, 1 or 3 ng/hour subcutaneously for 28 days, highest dose most effective): slightly reduced | increase of Adiponectin expression [2]: ~1.5 fold
